From the supplement of paper PMC7801607

Key:
[1] = tested on: Plasmodium berghei ANKA liver stage in HepG2-A16-CD81
[2] = tested on: Plasmodium falciparum Dd2 asexual blood stage
HepG2-A16-CD81 = test: CC50; higher = less toxic
Description: (§1)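 Dose-response IC50s: P. falciparum NF54 asexual (pLDH, 72 h; 6 means >6 µM), Dd2 asexual (SYBR Green I, 72 h, 1536-well; 5 means >5 µM), NF54 stage IV/V gametocytes (luciferase 48 h, ATP 24 h, PrestoBlue 48 h), P. berghei liver stage in HepG2-A16-CD81 (luciferase, 48 h; 5 means >5 µM), HepG2 CC50 (CellTiter-Glo; 5 means >5 µM).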

[3] = tested on: Plasmodium falciparum NF54 asexual blood stage
[4] = tested on: Plasmodium falciparum NF54 stage IV/V gametocytes
Description: as §1

[5] = tested on: Plasmodium falciparum NF54 stage IV/V gametocytes; remark: listed apart in the source
Description: as §1

Compound | IC50 [1] | IC50 [2] | CC50 (HepG2-A16-CD81) | IC50 [3] | IC50 (ATP bioluminescence) [4] | IC50 (luciferase reporter) [5]
COC1CC2CCC(C)C(O)(O2)C(=O)C(=O)N2CCCCC2C(=O)OC(C(C)CC2CCC(OCCO)C(OC)C2)CC(=O)C(C)/C=C(\C)C(O)C(OC)C(=O)C(C)CC(C)/C=C/C=C/C=C/1C (stereo not given) | > 5000 nM | 2060 nM | > 5000 nM |  |  | 
NC(=S)N/N=C/c1ncccc1N | 642 nM | 1280 nM | > 5000 nM | 1640 nM |  | 
COc1cc(C)c2c(Oc3cccc(C(F)(F)F)c3)c(OC)cc(NC(C)CCCN)c2n1 (stereo not given) | 3340 nM | 506 nM | > 5000 nM | 940 nM | 1400 nM | 7690 nM
Clc1cc(Cl)c2c(c1)CCc1ccccc1C2n1ccnc1 (stereo not given) | > 5000 nM | 3380 nM | > 5000 nM | 1480 nM | 4230 nM | 7650 nM
O=C1C=C(c2ccccc2)S(=O)(=O)c2ccccc21 |  | > 5000 nM |  |  | 2160 nM | 25700 nM
CN1CCN(Cc2ccc(-c3cnc4[nH]cc(-c5ccc6[nH]ccc6c5)c4c3)cc2)CC1 | 2510 nM | 1900 nM | > 5000 nM | 1390 nM | 1660 nM | 
N=c1n(CCN2CCCCC2)c2ccccc2n1CC(O)COc1ccc(Cl)cc1Cl (stereo not given) | 2790 nM | 831 nM | > 5000 nM | 1070 nM | 340 nM | 3820 nM
CCCCC(CC)CNC(=N)NC(=N)NCCCCCCNC(=N)NC(=N)NCC(CC)CCCC (stereo not given) | 2170 nM | 23 nM | 4140 nM | 109 nM | 824 nM | 1030 nM
CC(C)(C)c1ccc(Oc2ccc(N)cc2)cc1 |  | > 5000 nM |  |  |  | 1080 nM
Nc1nc(Nc2ccc3nc(-c4ccc(F)cc4)cc(N)c3c2)cc(-c2ccccc2)n1 | > 5000 nM | 55 nM | > 5000 nM | 49.5 nM | 79.9 nM | 152 nM
O=c1cc(NCCCN[C@@H]2CCOc3c(Br)cc(Br)cc32)[nH]c2ccsc12 | 1720 nM | 1620 nM | > 5000 nM |  |  | 
CCOc1ccc(C(=O)NCCc2ccccc2)cc1 |  | > 5000 nM |  |  |  | 11400 nM
O=C(Nc1ccc(F)cc1)c1nn(-c2ccccc2)c(=O)cc1Cl |  | > 5000 nM |  |  |  | 30600 nM
Cc1[nH]c2ccccc2c1CCNCc1ccc(/C=C/C(=O)NO)cc1 | 56.1 nM | 7 nM | 141 nM | 58.5 nM |  | 
C(=C\c1nc2ccccc2[nH]1)/c1ccc2c(c1)OCO2 |  | > 5000 nM |  |  |  | 3920 nM
CN1CCN(c2ccc3[nH]c(-c4ccc5[nH]c(-c6ccc(O)cc6)nc5c4)nc3c2)CC1 | > 5000 nM | 22 nM | > 5000 nM | 149 nM |  | 
N#Cc1c(F)c(Cl)c(NCc2ccccc2)c(C#N)c1F |  | > 5000 nM |  | > 6000 nM |  | 31600 nM
Oc1c(C(Nc2nc3ccccc3s2)c2ccc(OC(F)F)cc2)ccc2cccnc12 (stereo not given) |  | 3150 nM |  | 1670 nM |  | 5400 nM
CC(C)/N=c1\cc2n(-c3ccc(Cl)cc3)c3ccccc3nc-2cc1Nc1ccc(Cl)cc1 | > 5000 nM | 2850 nM | > 5000 nM | 878 nM |  | 

Compound | IC50 [1] | IC50 [2] | CC50 (HepG2-A16-CD81) | IC50 [3] | IC50 (ATP bioluminescence) [4] | IC50 (luciferase reporter) [5]
Cc1nc2ccc(Oc3ccccc3)cc2c2c1CCN2CCc1ccccc1 |  | > 5000 nM |  | 3010 nM | 1130 nM | 46300 nM
N=C(N)NCCCCC(=O)Nc1cc(C(F)(F)F)cc(NC(=O)c2cc(C(=O)Nc3cc(C(F)(F)F)cc(NC(=O)CCCCNC(=N)N)c3O[C@@H]3CCNC3)ncn2)c1O[C@@H]1CCNC1 |  | 3360 nM |  | 2210 nM |  | 6070 nM
CCN(CC)CCCC(C)Nc1ccnc2cc(Cl)ccc12 (stereo not given) | > 5000 nM | 50.6 nM | > 5000 nM | 30.1 nM |  | 
COc1cc(NCc2ccc3nc(N)nc(N)c3c2C)cc(OC)c1OC | 0.527 nM | 108 nM | 1660 nM |  |  | 
COc1nc2ccc(Br)cc2cc1[C@@H](c1ccccc1)[C@@](O)(CCN(C)C)c1cccc2ccccc12 | > 5000 nM | 2050 nM | > 5000 nM | > 6000 nM |  | 
CCN(CC)CCn1c(=N)n(CC(O)COc2ccc(Cl)cc2Cl)c2ccccc21 (stereo not given) | > 5000 nM | 792 nM | > 5000 nM | 678 nM | 350 nM | 3800 nM
CC[C@H](NC(=O)[C@H](C)NC)C(=O)N1C[C@@H](O)C[C@H]1Cc1c(-c2[nH]c3cc(F)ccc3c2C[C@@H]2C[C@H](O)CN2C(=O)[C@H](CC)NC(=O)[C@H](C)NC)[nH]c2cc(F)ccc12 | 128 nM | 236 nM | > 5000 nM | 986 nM | 1530 nM | 5210 nM
Cn1cc(NC(=O)c2cc(NC(=O)c3ccc(/C=C/c4cnc5ccccc5c4)cc3)cn2C)cc1C(=O)NCCN1CCOCC1 | 1990 nM | 69.4 nM | > 5000 nM | 62.1 nM |  | 103 nM
Oc1cccc(C(Nc2nccs2)c2ccc3cccnc3c2O)c1 (stereo not given) |  | > 5000 nM |  | 3460 nM | 5020 nM | 15900 nM
CCOC(=O)Nc1cc(NC(C)CC(C)CN(CC)CC)c2nc(-c3ccccc3)c(-c3ccccc3)nc2n1 (stereo not given) |  | 4050 nM |  |  | 4260 nM | 28600 nM
CCc1nc(N)nc(N)c1C#CC(C)c1cc(OC)cc(-c2ccncc2)c1 (stereo not given) | 4.22 nM | 1740 nM | > 5000 nM | 1.7 nM |  | 
O=C(Nc1cccc(C2=NCCN2)c1)c1ccc(-c2ccc(C(=O)Nc3cccc(C4=NCCN4)c3)cc2)cc1 | > 5000 nM | 19.4 nM | > 5000 nM | 44.8 nM |  | 480 nM
CN(C)CCCOc1ccc(-c2ccc3ncc4c(c3c2)n(C2CCOCC2)c(=O)n4C)cn1 | 1060 nM | 776 nM | > 5000 nM | 4000 nM |  | 1670 nM
CC[C@@]1(O)C(=O)OCc2c1cc1n(c2=O)Cc2cc3c([N+](=O)[O-])cccc3nc2-1 | 3570 nM | 4440 nM | > 5000 nM |  |  | 
O=C(/C(=C/c1ccc(Cl)cc1Cl)n1ccnc1)c1ccc(Cl)cc1 |  | 3320 nM |  | 2630 nM | 824 nM | 7080 nM
Cc1cccc(C)c1C(=O)Nc1nc(-c2ccccn2)cc2ccccc12 |  | > 5000 nM |  | > 6000 nM | 496 nM | 4030 nM
CCC(C)NCC(O)Cn1c2ccc(Cl)cc2c2cc(Cl)ccc21 (stereo not given) | > 5000 nM | 51.6 nM | > 5000 nM | 383 nM | 2910 nM | 7640 nM
Fc1ccc2c(/C=C/c3cccnc3)c[nH]c2c1 | > 5000 nM | 1010 nM | > 5000 nM |  |  | 
